In patent US11000033B2, “Ketone or oxime compound, and herbicide” (NISSAN CHEMICAL CORPORATION, priority 2014, dated 2021):

How the values were obtained:
Assay type in all cases: in vivo
[1] = tested on: Echinochloa oryzacola Vasing.; assay: Test Example 1: herbicidal activity, application before weed generation in submerged conditions (symbol A); details: application herbicide amount 320 g/ha
Summary of the method: (§1)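 Flooded alluvial soil (4 cm water) was mixed-sown with the three weed species, and 2.5-leaf rice seedlings were transplanted. On sowing day, a water-diluted emulsion at a predetermined rate was applied to the water surface. After 3 weeks in a 25–30 °C greenhouse, effect was scored 0–5.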

Scirpus juncoides [2] = assay: Test Example 1: herbicidal activity, application before weed generation in submerged conditions (symbol B); details: application herbicide amount 320 g/ha
Summary of the method: as §1

Monochoria vaginalis [3] = assay: Test Example 1: herbicidal activity, application before weed generation in submerged conditions (symbol C); details: application herbicide amount 320 g/ha
Summary of the method: as §1

transplanted rice plant = assay: Test Example 1: effect on crop, application before weed generation in submerged conditions (symbol a); details: application herbicide amount 320 g/ha
Summary of the method: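 Alluvial soil pots flooded to 4 cm water, sown with Echinochloa oryzacola, Scirpus juncoides and Monochoria vaginalis, then transplanted with 2.5 leaf stage rice seedlings; pre-emergence application. Greenhouse 25° C. to 30° C.; scored 0–5 by herbicidal ratio 3 weeks after application.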

[4] = tested on: Echinochloa oryzacola Vasing.; assay: Test Example 2: herbicidal activity, application during weed generation in submerged conditions (symbol A); details: Table 23; application herbicide amount 320 g/ha; grade 0-5 by criteria of Test Example 1
Summary of the method: (§2)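 Seeds sown in flooded alluvial soil (4 cm water) were grown in a 25-30° C greenhouse. At the one- to two-leaf stage, diluted emulsion of compound was applied to the water surface at a predetermined rate. Effect was scored 3 weeks later.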

Scirpus juncoides [5] = assay: Test Example 2: herbicidal activity, application during weed generation in submerged conditions (symbol B); details: Table 23; application herbicide amount 320 g/ha; grade 0-5 by criteria of Test Example 1
Summary of the method: as §2

Monochoria vaginalis [6] = assay: Test Example 2: herbicidal activity, application during weed generation in submerged conditions (symbol C); details: Table 23; application herbicide amount 320 g/ha; grade 0-5 by criteria of Test Example 1
Summary of the method: as §2

[7] = tested on: Echinochloa crus-galli var. crus-galli; assay: Test Example 3: herbicidal effect by foliage application, Wagner pot (symbol H); details: application herbicide amount 320 g/ha, Table 24
Summary of the method: (§3)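 Plants sown in submerged alluvial soil (water depth 0.1–0.5 cm) in a 25–30 °C greenhouse and grown 14 days. An emulsion of the compound diluted in water to a set herbicide amount was sprayed uniformly on foliage. Effect on each plant scored 3 weeks after application.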

Leptochloa chinensis = assay: Test Example 3: herbicidal effect by foliage application, Wagner pot (symbol D); details: application herbicide amount 320 g/ha, Table 24
Summary of the method: as §3

Cyperus difformis = assay: Test Example 3: herbicidal effect by foliage application, Wagner pot (symbol E); details: application herbicide amount 320 g/ha, Table 24
Summary of the method: as §3

[8] = tested on: directly sowed rice plant; assay: Test Example 3: effect on crop by foliage application, Wagner pot (symbol b); details: application herbicide amount 320 g/ha, Table 24
Summary of the method: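 Plants are raised from seed in flooded paddy conditions: water stands 0.1–0.5 cm over alluvial soil, and the pot is kept in a greenhouse at 25–30 °C. Species sown are barnyardgrass (E. crus-galli var. crus-galli), Leptochloa chinensis, Cyperus difformis and rice.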

Digitaria ciliaris = assay: Test Example 5: herbicidal effect by foliage application, plastic box (symbol F); details: 320 g/ha, 3 weeks after application
Summary of the method: (§4)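 Effect is rated 3 weeks after a foliar spray of water-diluted emulsion concentrate at a predetermined herbicide amount. Plants had grown 14 days in a 25° C. to 30° C. greenhouse from seed in sterilized diluvial soil.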

Setaria viridis = assay: Test Example 5: herbicidal effect by foliage application, plastic box (symbol G); details: 320 g/ha, 3 weeks after application
Summary of the method: as §4

[9] = tested on: Echinochloa crus-galli var. crus-galli; assay: Test Example 5: herbicidal effect by foliage application, plastic box (symbol H); details: 320 g/ha, 3 weeks after application
Summary of the method: as §4

Avena fatua = assay: Test Example 5: herbicidal effect by foliage application, plastic box (symbol I); details: 320 g/ha, 3 weeks after application
Summary of the method: as §4

Alopecurus myosuroides = assay: Test Example 5: herbicidal effect by foliage application, plastic box (symbol J); details: 320 g/ha, 3 weeks after application
Summary of the method: as §4

Lolium multiflorum Lam. = assay: Test Example 5: herbicidal effect by foliage application, plastic box (symbol K); details: 320 g/ha, 3 weeks after application
Summary of the method: as §4

Apera spica-venti = assay: Test Example 5: herbicidal effect by foliage application, plastic box (symbol L); details: 320 g/ha, 3 weeks after application
Summary of the method: as §4

Abutilon theophrasti = assay: Test Example 5: herbicidal effect by foliage application, plastic box (symbol M); details: 320 g/ha, 3 weeks after application
Summary of the method: as §4

Amaranthus retroflexus = assay: Test Example 5: herbicidal effect by foliage application, plastic box (symbol N); details: 320 g/ha, 3 weeks after application
Summary of the method: as §4

Chenopodium album = assay: Test Example 5: herbicidal effect by foliage application, plastic box (symbol O); details: 320 g/ha, 3 weeks after application
Summary of the method: as §4

Stellaria media = assay: Test Example 5: herbicidal effect by foliage application, plastic box (symbol P); details: 320 g/ha, 3 weeks after application
Summary of the method: as §4

Galium spurium = assay: Test Example 5: herbicidal effect by foliage application, plastic box (symbol Q); details: 320 g/ha, 3 weeks after application
Summary of the method: as §4

Veronica persica = assay: Test Example 5: herbicidal effect by foliage application, plastic box (symbol R); details: 320 g/ha, 3 weeks after application
Summary of the method: as §4

corn = assay: Test Example 5: effect on crop by foliage application, plastic box (symbol c); details: 320 g/ha, 3 weeks after application
Summary of the method: (§5)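 Crop and weed seeds sown in spots in sterilized diluvial soil in plastic boxes and covered with about 1.5 cm soil. Plants raised in a greenhouse at 25° C. to 30° C. for foliar application.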

soybean = assay: Test Example 5: effect on crop by foliage application, plastic box (symbol d); details: 320 g/ha, 3 weeks after application
Summary of the method: as §5

rice plant = assay: Test Example 5: effect on crop by foliage application, plastic box (symbol b); details: 320 g/ha, 3 weeks after application
Summary of the method: as §5

wheat = assay: Test Example 5: effect on crop by foliage application, plastic box (symbol e); details: 320 g/ha, 3 weeks after application
Summary of the method: as §5

beet = assay: Test Example 5: effect on crop by foliage application, plastic box (symbol f); details: 320 g/ha, 3 weeks after application
Summary of the method: as §5

rapeseed = assay: Test Example 5: effect on crop by foliage application, plastic box (symbol g); details: 320 g/ha, 3 weeks after application
Summary of the method: as §5

COCCON=C(CC1CC(O)=C(c2c(C)cc(Br)cc2C)C1=O)C(C)C (stereo not drawn) [9-018]
A (Echinochloa oryzacola Vasing.) herbicidal effect grade [1]: 1 (Herbicidal ratio of 5% or higher and lower than 20%) | B (Scirpus juncoides) herbicidal effect grade (Scirpus juncoides [2]): 0 (Herbicidal ratio of 5% or lower (almost no effect)) | C (Monochoria vaginalis) herbicidal effect grade (Monochoria vaginalis [3]): 0 (Herbicidal ratio of 5% or lower (almost no effect)) | a (transplanted rice plant) effect on crop grade (transplanted rice plant): 2 (Herbicidal ratio of 20% or higher and lower than 40%) | Herbicidal effect grade, A: Echinochloa oryzacola Vasing. [4]: 1 (Herbicidal ratio of 5% or higher and lower than 20%) | Herbicidal effect grade, B: Scirpus juncoides (Scirpus juncoides [5]): 0 (Herbicidal ratio of 5% or lower (almost no effect)) | Herbicidal effect grade, C: Monochoria vaginalis (Monochoria vaginalis [6]): 0 (Herbicidal ratio of 5% or lower (almost no effect)) | H (Echinochloa crus-galli var. crus-galli) herbicidal effect grade [7]: 2 (Herbicidal ratio of 20% or higher and lower than 40%) | D (Leptochloa chinensis) herbicidal effect grade (Leptochloa chinensis): 0 (Herbicidal ratio of 5% or lower (almost no effect)) | E herbicidal effect grade (Cyperus difformis): 0 (Herbicidal ratio of 5% or lower (almost no effect)) | b (directly sowed rice plant) effect on crop grade [8]: 4 (Herbicidal ratio of 70% or higher and lower than 90%) | F: Digitaria ciliaris, herbicidal effect grade (Digitaria ciliaris): 0 (Herbicidal ratio of 5% or lower (almost no effect)) | G: Setaria viridis, herbicidal effect grade (Setaria viridis): 3 (Herbicidal ratio of 40% or higher and lower than 70%) | H: Echinochloa crus-galli var. crus-galli, herbicidal effect grade [9]: 3 (Herbicidal ratio of 40% or higher and lower than 70%) | I: Avena fatua, herbicidal effect grade (Avena fatua): 3 (Herbicidal ratio of 40% or higher and lower than 70%) | J: Alopecurus myosuroides, herbicidal effect grade (Alopecurus myosuroides): 1 (Herbicidal ratio of 5% or higher and lower than 20%) | K: Lolium multiflorum Lam., herbicidal effect grade (Lolium multiflorum Lam.): 1 (Herbicidal ratio of 5% or higher and lower than 20%) | L: Apera spica-venti, herbicidal effect grade (Apera spica-venti): 0 (Herbicidal ratio of 5% or lower (almost no effect)) | M: Abutilon theophrasti, herbicidal effect grade (Abutilon theophrasti): 0 (Herbicidal ratio of 5% or lower (almost no effect)) | N: Amaranthus retroflexus, herbicidal effect grade (Amaranthus retroflexus): 0 (Herbicidal ratio of 5% or lower (almost no effect)) | O: Chenopodium album, herbicidal effect grade (Chenopodium album): 0 (Herbicidal ratio of 5% or lower (almost no effect)) | P: Stellaria media, herbicidal effect grade (Stellaria media): 1 (Herbicidal ratio of 5% or higher and lower than 20%) | Q: Galium spurium, herbicidal effect grade (Galium spurium): 0 (Herbicidal ratio of 5% or lower (almost no effect)) | R: Veronica persica, herbicidal effect grade (Veronica persica): 0 (Herbicidal ratio of 5% or lower (almost no effect)) | c: corn, effect on crop grade (corn): 3 (Herbicidal ratio of 40% or higher and lower than 70%) | d: soybean, effect on crop grade (soybean): 0 (Herbicidal ratio of 5% or lower (almost no effect)) | b: directly sowed rice plant, effect on crop grade (rice plant): 3 (Herbicidal ratio of 40% or higher and lower than 70%) | e: wheat, effect on crop grade (wheat): 0 (Herbicidal ratio of 5% or lower (almost no effect)) | f: beet, effect on crop grade (beet): 0 (Herbicidal ratio of 5% or lower (almost no effect)) | g: rapeseed, effect on crop grade (rapeseed): 0 (Herbicidal ratio of 5% or lower (almost no effect))
